{"source": "patent US20030215888A1", "about": "“Androgen receptor overexpressing skeletal myoblasts” (Pfizer Inc., priority 2002, published 2003)", "key": {"C2hAR57 cells [1]": {"tested_on": "C2hAR57 cells", "settings": "for protein content / protein content, percentage difference from vehicle: 3 days in fusion medium", "protocol": "Procedure A—Three days in fusion medium. C2hAR57 cells were plated in 12-well tissue culture plates (Costar, Corning, N.Y.) at 4×10^4 cells/well in high mitogen growth medium."}, "C2hAR57 cells [2]": {"tested_on": "C2hAR57 cells", "settings": "C2hAR57, 100 nM DHT, 1, 2 or 3 days in fusion medium", "source_text": "(§4) Fusion medium was changed daily. C2hAR57 cells at low density in high mitogen growth medium appeared as small, adherent mononuclear cells."}, "C2hAR57 cells [3]": {"tested_on": "C2hAR57 cells", "assay": "[3H]-thymidine uptake assay, C2hAR57 cells", "assay_type": "cell-based, mouse", "settings": "48 hours exposure", "protocol": "After 48 hours exposure to the test agents, medium containing 0.1 μCi [^3H]-thymidine (82 Ci/mmol, Amersham, Buckinghamshire, UK) per well was added and incubation was continued for two additional hours at 37° C. The assay was terminated by aspirating the culture medium and washing with ice-cold phosphate buffered saline followed by 5% trichloroacetic acid. The cells where then lysed by applying 0.3 N NaOH (75 μl per well) followed by 0.3 N HCl (75 μl per well) to neutralize the NaOH. The radioactivity in 50-μl aliquots was determined by liquid scintillation counting in 96-well plates (Packard Instrument Corporation) using a TopCount™ Scintillation Counter (Packard Instrument Corporation)."}, "C2C12 cells [4]": {"tested_on": "C2C12 cells", "settings": "C2C12, 100 nM DHT, 24 hours in fusion medium", "protocol": "(§1) All cultures were approximately 80% confluent at the time of mitogen withdrawal. After 24 hour in fusion medium, the medium containing nonadherent cells was transferred to centrifuge tubes. The dishes were then rinsed with phosphate buffered saline and adherent cells were collected by trypsinization. Cell pellets were recovered by centrifugation and lysed in 50 mM Tris HCl, pH 8, 100 mM Na2EDTA, 0.5% sodium dodecylsulfate. […] DNA yields from pools of five dishes were determined by UV spectroscopy at 260 nm. Aliquots corresponding to 10 μg DNA were analyzed by electrophoresis on a 1% agarose gel in TBE buffer and visualized by ethidium bromide fluorescence with UV transillumination."}, "C2hAR57 cells [5]": {"tested_on": "C2hAR57 cells", "settings": "C2hAR57, 100 nM DHT", "protocol": "as §1"}, "C2C12 cells [6]": {"tested_on": "C2C12 cells", "settings": "C2C12, addition of DHT, fusion medium", "source_text": "as §4"}, "[7]": {"tested_on": "IGFBP4 transcripts in C2C12 cells", "settings": "C2C12, 100 nM DHT", "protocol": "(§2) Day zero samples were harvested just prior to the induction of differentiation. […] Total RNA was isolated using Trizol®, and RNA concentration was determined by UV spectroscopy. Samples containing 20 micrograms of total RNA were separated by electrophoresis on formaldehyde-containing agarose gels, transferred to Duralon-UV™ nylon membrane (Stratagene, La Jolla, Calif.) by capillary blotting in 5×SSPE and probed sequentially for IGFBP4, IGF-II and 18S ribosomal RNA. DNA fragments used for probes were generated by reverse transcription polymerase chain reaction using rat skeletal muscle poly A+ RNA as template. […] Probes were denatured by boiling and used at a concentration of 1-2×10^6 dpm/ml hybridization solution (50% formamide, 6×SSC, 1% SDS, 15×Denhardt's solution, 0.1 mg/ml sheared salmon sperm DNA). Following hybridization at 42° C. for at least 24 hours, the membranes were washed to moderate stringency with 0.3×SSC/0.1% SDS at 55° C. […] Between successive probings, the membrane was stripped by incubation at 70° C. for one to three hours in a solution consisting of 5 mM Tris HCl, pH 8, 0.2 mM Na2EDTA, 0.05% sodium pyrophosphate and 0.1×Denhardt's solution. The imaging plate was exposed for 42 hours and 90 minutes to the IGFBP4 and IGF-II hybridizations, respectively. The 18S signal was used to normalize the hybridization signals from each of the other probes."}, "[8]": {"tested_on": "IGF-II transcripts in C2hAR57 cells", "settings": "C2hAR57, 100 nM DHT", "protocol": "as §2"}, "[9]": {"tested_on": "IGF-II transcripts in C2C12 cells", "settings": "C2C12, 100 nM DHT", "protocol": "as §2"}, "[10]": {"tested_on": "IGFBP4 transcripts in C2hAR57 cells", "settings": "C2hAR57, 100 nM DHT", "protocol": "as §2"}, "C2C12 cells [11]": {"tested_on": "C2C12 cells", "settings": "C2C12, 100 nM DHT", "protocol": "(§3) Each cell sample was pelleted by low-speed centrifugation and resuspended in 0.5 ml phosphate buffered saline containing 100 micrograms/ml ribonuclease A and 20 microgram/ml propidium iodide for 30 minutes at room temperature."}, "C2hAR57 cells [12]": {"tested_on": "C2hAR57 cells", "settings": "C2hAR57, 100 nM DHT", "protocol": "as §3", "remark": "listed apart in the source"}}, "note": "Where two headings read alike, the source gives them in different places."}
{"molecule": "C[C@]12CCC(=O)C[C@@H]1CC[C@@H]1[C@@H]2CC[C@]2(C)[C@@H](O)CC[C@@H]12", "note": "[DHT, dihydrotestosterone]", "values": [{"measurement": "protein content", "setting": "C2hAR57 cells [1]; C2hAR57, 0.001 nM DHT", "result": "123 ± 6", "unit": "micrograms/well"}, {"measurement": "protein content, percentage difference from vehicle", "setting": "C2hAR57 cells [1]; C2hAR57, 0.001 nM DHT", "result": "−1", "unit": "%"}, {"measurement": "protein content", "setting": "C2hAR57 cells [1]; C2hAR57, 0.01 nM DHT", "result": "127 ± 11", "unit": "micrograms/well"}, {"measurement": "protein content, percentage difference from vehicle", "setting": "C2hAR57 cells [1]; C2hAR57, 0.01 nM DHT", "result": "+3%"}, {"measurement": "protein content", "setting": "C2hAR57 cells [1]; C2hAR57, 0.1 nM DHT", "result": "152 ± 2", "unit": "micrograms/well"}, {"measurement": "protein content, percentage difference from vehicle", "setting": "C2hAR57 cells [1]; C2hAR57, 0.1 nM DHT", "result": "+23%"}, {"measurement": "protein content", "setting": "C2hAR57 cells [1]; C2hAR57, 1 nM DHT", "result": "188 ± 4", "unit": "micrograms/well"}, {"measurement": "protein content, percentage difference from vehicle", "setting": "C2hAR57 cells [1]; C2hAR57, 1 nM DHT", "result": "+52%"}, {"measurement": "protein content", "setting": "C2hAR57 cells [1]; C2hAR57, 10 nM DHT", "result": "199 ± 10", "unit": "micrograms/well"}, {"measurement": "protein content, percentage difference from vehicle", "setting": "C2hAR57 cells [1]; C2hAR57, 10 nM DHT", "result": "+61%"}, {"measurement": "protein content", "setting": "C2hAR57 cells [1]; C2hAR57, 100 nM DHT", "result": "200 ± 4", "unit": "micrograms/well"}, {"measurement": "protein content, percentage difference from vehicle", "setting": "C2hAR57 cells [1]; C2hAR57, 100 nM DHT", "result": "+62%"}, {"measurement": "protein content", "setting": "C2hAR57 cells [1]; C2hAR57, 1000 nM DHT", "result": "212 ± 3", "unit": "micrograms/well"}, {"measurement": "protein content, percentage difference from vehicle", "setting": "C2hAR57 cells [1]; C2hAR57, 1000 nM DHT", "result": "+71%"}, {"measurement": "dose-related increase in total protein content", "setting": "C2hAR57 cells [1]; differentiating C2hAR57 cultures, DHT 10^-12-10^-6 M, Procedure A", "result": "up to 71%"}, {"measurement": "rate of myotube formation", "setting": "C2hAR57 cells [2]", "result": "more rapidly"}, {"measurement": "effect on [3H]-thymidine uptake", "setting": "C2hAR57 cells [3]", "result": "dose-dependent inhibitory effects"}, {"measurement": "DNA, adherent cells", "setting": "C2C12 cells [4]", "result": 504, "unit": "μg/dish"}, {"measurement": "DNA, nonadherent cells (% total)", "setting": "C2C12 cells [4]", "result": 2.9, "unit": "%"}, {"measurement": "effect on the fraction of nonadherent cells", "setting": "C2C12 cells [4]", "result": "did not appreciably alter"}, {"measurement": "reduction of the incidence of apoptotic cells", "setting": "C2hAR57 cells [5]; 24 hour period following mitogen withdrawal", "result": "approximately 75%"}, {"measurement": "DNA, adherent cells", "setting": "C2hAR57 cells [5]; 24 hours in fusion medium", "result": 528, "unit": "μg/dish"}, {"measurement": "DNA, nonadherent cells", "setting": "C2hAR57 cells [5]; 24 hours in fusion medium", "result": 2.6, "unit": "μg/dish"}, {"measurement": "DNA, nonadherent cells (% total)", "setting": "C2hAR57 cells [5]; 24 hours in fusion medium", "result": 0.5, "unit": "%"}, {"measurement": "rate and extent of myotube formation", "setting": "C2C12 cells [6]", "result": "neither the rate nor the extent of myotube formation in cultures of C2C12 was visibly affected"}, {"measurement": "magnitude of IGFBP4 suppression", "setting": "[7]; 0 days in fusion medium", "result": 20, "unit": "%"}, {"measurement": "magnitude of IGFBP4 suppression", "setting": "[7]; 1 day in fusion medium", "result": 51, "unit": "%"}, {"measurement": "magnitude of IGFBP4 suppression", "setting": "[7]; 2 days in fusion medium", "result": 44, "unit": "%"}, {"measurement": "increase of IGF-II transcripts", "setting": "[8]; 0 days in fusion medium", "result": 10.2, "unit": "×"}, {"measurement": "increase of IGF-II transcripts", "setting": "[8]; 1 day in fusion medium", "result": 3.6, "unit": "×"}, {"measurement": "increase of IGF-II transcripts", "setting": "[8]; 2 days in fusion medium", "result": 2, "unit": "×"}, {"measurement": "increase of IGF-II transcripts", "setting": "[9]; 0 days in fusion medium", "result": 0.8, "unit": "×"}, {"measurement": "increase of IGF-II transcripts", "setting": "[9]; 1 day in fusion medium", "result": 1.5, "unit": "×"}, {"measurement": "increase of IGF-II transcripts", "setting": "[9]; 2 days in fusion medium", "result": 1.0, "unit": "×"}, {"measurement": "magnitude of IGFBP4 suppression", "setting": "[10]; 0 days in fusion medium", "result": 75, "unit": "%"}, {"measurement": "magnitude of IGFBP4 suppression", "setting": "[10]; 1 day in fusion medium", "result": 86, "unit": "%"}, {"measurement": "magnitude of IGFBP4 suppression", "setting": "[10]; 2 days in fusion medium", "result": 70, "unit": "%"}, {"measurement": "effect on fraction of cells at each stage of the cell cycle", "setting": "C2C12 cells [11]", "result": "unaffected"}, {"measurement": "Percentage of cells in G2-M", "setting": "C2C12 cells [11]; 24 h", "result": "15.6 ± 1.2", "unit": "%"}, {"measurement": "Percentage of cells in GO-G1", "setting": "C2C12 cells [11]; 24 h", "result": "40.3 ± 0.8", "unit": "%"}, {"measurement": "Percentage of cells in S", "setting": "C2C12 cells [11]; 24 h", "result": "45.3 ± 1.1", "unit": "%"}, {"measurement": "Percentage of cells in G2-M", "setting": "C2C12 cells [11]; 48 h", "result": "15.8 ± 0.7", "unit": "%"}, {"measurement": "Percentage of cells in GO-G1", "setting": "C2C12 cells [11]; 48 h", "result": "38.0 ± 0.6", "unit": "%"}, {"measurement": "Percentage of cells in S", "setting": "C2C12 cells [11]; 48 h", "result": "46.2 ± 0.7", "unit": "%"}, {"measurement": "Percentage of cells in G2-M", "setting": "C2hAR57 cells [12]; 24 h", "result": "14.3 ± 0.4", "unit": "%"}, {"measurement": "Percentage of cells in GO-G1", "setting": "C2hAR57 cells [12]; 24 h", "result": "54.5 ± 0.7", "unit": "%"}, {"measurement": "Percentage of cells in S", "setting": "C2hAR57 cells [12]; 24 h", "result": "31.2 ± 0.6", "unit": "%"}, {"measurement": "Percentage of cells in G2-M", "setting": "C2hAR57 cells [12]; 48 h", "result": "15.1 ± 1.1", "unit": "%"}, {"measurement": "Percentage of cells in GO-G1", "setting": "C2hAR57 cells [12]; 48 h", "result": "51.2 ± 2.8", "unit": "%"}, {"measurement": "Percentage of cells in S", "setting": "C2hAR57 cells [12]; 48 h", "result": "33.7 ± 3.2", "unit": "%"}]}
